# From paper PMC9250238 (BMC Complementary Medicine and Therapies, 2022)
# Read-outs that look alike come from different tables or passages of the source.
# How the values were obtained:
# [1] = target: T1, α-glucosidase (Saccharomyces cerevisiae) (Saccharomyces cerevisiae, UniProt P53341); assay: biochemical
# Method: (§3) α-Glucosidase inhibitor screening was conducted according to a previously reported procedure with slight modifications [20]. A measured amount of pNPG powder was dissolved at 2 mg/mL in 0.01 M phosphate buffer (pH = 6.8), and then 50 μL of the pNPG solution was mixed with an equal volume of isolated compounds from D. angustifolia Roxb, which were diluted to 4 mM. After being kept at 37 °C for 10 min, 25 μL of α-glucosidase (0.5 U/mL) was added. Following another 10 min incubation at 37 °C, the reaction was stopped with 125 μL of 0.2 M Na2CO3, and the absorbance at 410 nm of each sample (converted pNP) was measured via a microplate reader (BioTek ELX-800, USA).
# [2] = target: T1, α-glucosidase (Saccharomyces cerevisiae); assay: Kinetic test for α-glucosidase (Lineweaver–Burk)
# Method: A measured amount of pNPG powder was dissolved at 2 mg/mL in 0.01 M phosphate buffer (pH = 6.8), and then 50 μL of the pNPG solution was mixed with an equal volume of isolated compounds from D. angustifolia Roxb, which were diluted to 4 mM. After being kept at 37 °C for 10 min, 25 μL of α-glucosidase (0.5 U/mL) was added. Following another 10 min incubation at 37 °C, the reaction was stopped with 125 μL of 0.2 M Na2CO3, and the absorbance at 410 nm of each sample (converted pNP) was measured via a microplate reader (BioTek ELX-800, USA). […] To acquire the inhibition type and related parameters of those inhibitors, kinetic assays were carried out, and the conditions of enzymatic reactions are detailed in the above section, in which the amount of enzymes was fixed. With an increasing amount of substrate, the amount of hydrolysed pNPG or starch in the presence of compounds (concentration gradient was established on the basis of their IC50 value) was quantified to create Lineweaver–Burk plots.
# [3] = target: T2, α-amylase (porcine pancreas) (Sus scrofa, UniProt P00690); assay: Kinetic test for α-amylase (Lineweaver–Burk); type: biochemical; design: purchased Sigma–Aldrich; host or cells: porcine pancreas; details: Lineweaver–Burk plots
# T2 sequence (P00690 16-511): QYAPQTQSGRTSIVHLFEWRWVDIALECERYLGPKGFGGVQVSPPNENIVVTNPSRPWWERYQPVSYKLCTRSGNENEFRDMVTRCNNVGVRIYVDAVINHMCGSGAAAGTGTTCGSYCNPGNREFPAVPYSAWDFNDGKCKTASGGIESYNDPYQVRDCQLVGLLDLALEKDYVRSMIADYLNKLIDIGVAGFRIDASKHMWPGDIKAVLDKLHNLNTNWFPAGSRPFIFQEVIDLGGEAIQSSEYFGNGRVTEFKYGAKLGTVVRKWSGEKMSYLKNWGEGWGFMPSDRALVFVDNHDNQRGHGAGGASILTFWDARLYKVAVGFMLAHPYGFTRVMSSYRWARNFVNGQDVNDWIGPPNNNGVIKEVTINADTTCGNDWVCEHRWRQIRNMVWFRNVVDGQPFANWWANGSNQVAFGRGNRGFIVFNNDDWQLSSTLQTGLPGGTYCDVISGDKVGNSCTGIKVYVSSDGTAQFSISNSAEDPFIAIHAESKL
# Method: (§1) Changes in α-amylase activities were quantitatively analysed via a method based on starch-iodine colorimetric detection. […] A mixture of 40 μL of starch solution and 40 μL of selected compounds was maintained at 37 °C for 10 min, and 80 μL α-amylase (5 U/mL) was added to start the reaction. After 30 min at 37 °C, terminations were achieved using 40 μL of 1 M HCl.
# [4] = target: T2, α-amylase (porcine pancreas); assay: α-Amylase inhibition assay (starch-iodine); details: for IC50 against α-amylase (result in words): in the test concentration range
# Method: Changes in α-amylase activities were quantitatively analysed via a method based on starch-iodine colorimetric detection [21]. […] A mixture of 40 μL of starch solution and 40 μL of selected compounds was maintained at 37 °C for 10 min, and 80 μL α-amylase (5 U/mL) was added to start the reaction. After 30 min at 37 °C, terminations were achieved using 40 μL of 1 M HCl.
# [5] = target: T2, α-amylase (porcine pancreas); assay: Combined inhibition of acarbose and selected flavonoids against α-amylase (CompuSyn CI); type: biochemical; design: purchased Sigma–Aldrich; host or cells: porcine pancreas; details: CI >1.1 antagonistic, 0.9-1.1 additive, <0.9 synergistic
# Method: as §1
# (§2) A combination index (CI) was employed to evaluate the impacts of binary inhibitors on α-glucosidase and α-amylase. […] When the CI values were above 1.1, between 0.9 and 1.1, and below 0.9, the effects were defined as antagonistic, additive, and synergistic.
# [6] = target: T1, α-glucosidase (Saccharomyces cerevisiae); assay: Combined inhibition of acarbose and selected compounds against α-glucosidase (CompuSyn CI); type: biochemical; design: purchased Sigma–Aldrich; details: for Type of interaction with acarbose against α-glucosidase: CI >1.1 antagonistic, 0.9-1.1 additive, <0.9 synergistic; for CI values against α-glucosidase: combination with acarbose, over tested concentrations
# From the text: as §2
# [7] = target: T1, α-glucosidase (Saccharomyces cerevisiae); details: read-out: IC50 against α-glucosidase; in vitro, pNPG substrate, 37 °C, pH 6.8
# Method: as §3
# T1 sequence (P53341 whole entry): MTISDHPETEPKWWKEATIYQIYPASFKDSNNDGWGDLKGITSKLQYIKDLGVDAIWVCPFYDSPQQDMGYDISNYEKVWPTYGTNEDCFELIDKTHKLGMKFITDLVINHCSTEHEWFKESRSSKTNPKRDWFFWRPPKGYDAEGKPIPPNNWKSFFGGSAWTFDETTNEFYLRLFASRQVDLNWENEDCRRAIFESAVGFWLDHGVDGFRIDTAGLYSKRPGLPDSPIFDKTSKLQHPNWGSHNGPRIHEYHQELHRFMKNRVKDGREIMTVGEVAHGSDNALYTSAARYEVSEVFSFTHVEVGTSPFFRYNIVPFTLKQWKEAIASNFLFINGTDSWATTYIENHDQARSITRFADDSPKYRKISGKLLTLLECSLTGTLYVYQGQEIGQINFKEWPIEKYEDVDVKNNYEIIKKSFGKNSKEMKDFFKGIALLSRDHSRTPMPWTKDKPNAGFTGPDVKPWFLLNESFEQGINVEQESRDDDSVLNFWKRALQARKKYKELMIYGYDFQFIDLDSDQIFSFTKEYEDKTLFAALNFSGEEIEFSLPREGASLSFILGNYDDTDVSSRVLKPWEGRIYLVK
Compound,IC50 [1],Ki [2],Mode of inhibition (α-glucosidase) ([2]; Lineweaver–Burk plots),Ki [3],Mode of inhibition (α-amylase) [3],IC50 [4],Type of interaction with acarbose against α-amylase [5],Type of interaction with acarbose against α-glucosidase [6],CI values against α-glucosidase [6],IC50 against α-amylase (result in words) [4],"IC50 ([4]; read-out: IC50 against α-amylase, in vitro, starch-iodine method, 37 °C)","Ki ([2]; read-out: Ki (α-glucosidase), Lineweaver–Burk plots)","CI (combination index) against α-glucosidase ([6]; highest concentration pair (about IC50), acarbose 5 mM, No.6/No.8 0.5 mM, No.9/No.24 1 mM, No.22 50 μM)",IC50 [7]
"COc1cc(O)c2c(c1C)O[C@H](c1ccc(O)cc1)CC2 [Compound 5, (2S)-4′,5-Dihydroxy-7-methoxy-8-methylflavan]",240 ± 30 µM,39.9 ± 8.47 µM,noncompetitive inhibitor,–,–,–,–,–,–,–,–,–,–,–
"Cc1c(O)cc2c(c1O)C(=O)C(Cc1ccc(O)cc1)CO2 (centres unmarked) [Compound 8, 5,7-dihydroxy-6-methyl-3-(4′-hydroxybenzyl) chroman-4-one]",520 ± 10 µM,11.2 ± 0.99 µM,Competitive,14100 ± 3530 µM,Mixed,5990 ± 60 µM,additive effects,synergism,below 0.9,–,–,–,–,–
"O=c1c(Cc2ccc(O)cc2)coc2cc(O)cc(O)c12 [Compound 9, 5,7-dihydroxy-3-(4′-hydroxybenzyl) chromone]",650 ± 10 µM,54.4 ± 15.8 µM,Mixed,8590 ± 1940 µM,Mixed,2590 ± 50 µM,additive effects,synergism,below 0.9,–,–,–,–,–
"O=C(/C=C/c1ccc(O)cc1)NCCc1ccc(O)cc1 [Compound 18, trans-N-p-coumaroyltyramine]",1.99 ± 0.2 µM,21.1 ± 12.2 µM,Uncompetitive,–,–,–,–,–,–,–,–,–,–,–
"CCO[C@@H](c1ccc(O)c(OC)c1)[C@H](O)CO [Compound 22, erythro-7R,8S-7-O-ethylguaiacyl glycerol]",40 ± 4 µM,7 ± 1.97 µM,Mixed,–,–,–,–,synergism,below 0.9,did not yield 50% inhibition,–,–,–,–
"Cc1c(Cl)c(O)cc(O)c1Cl [Compound 24, 4,6-dichloro-5-methyl-benzene-1,3-diol]",780 ± 30 µM,44 ± 0.88 µM,Mixed,–,–,–,–,moderate additive effects,–,did not yield 50% inhibition,–,–,–,–
"(2S)-4′-hydroxy-5,7-dimethoxy-8-methylflavan [Compound 6]",–,–,Mixed,27500 ± 3510 µM,Mixed,–,additive effects,slight antagonism,–,–,6030 ± 270 µM,57.8 ± 1.67 µM,1.12,370 ± 20 µM
